{"source": "paper PMC11125126", "about": "“Synthesis, Characterisation, and In Vitro Evaluation of Biocompatibility, Antibacterial and Antitumor Activity of Imidazolium Ionic Liquids” (Pharmaceutics, 2024)", "key": {"[1]": {"test_system": "HDF cells", "test": "Indirect cytotoxic test (ISO 10993-5 elution) of IL-loaded PVC, Alamar blue", "type": "cell-based, human", "details": "IL loaded into the PVC matrix at 0.5 and 1 wt%; 24 h elution, 24 h exposure", "experimental": "Indirect test: ISO 10993-5, which provides test procedures to evaluate the in vitro cytotoxicity of medical devices, was employed to test biocompatibility. The elution test was conducted by incubating the material in a sterile DMEM solution (extraction vehicle prepared as described earlier) at a ratio of 0.1 g/1.0 mL at 37 °C (following ISO 10993-12 guidelines). After 24 h of elution time, the conditioned media (eluants) were collected, and 200 µL were pipetted into a 96-well plate previously seeded with HDF cells at 80% confluence. The plate was incubated for an additional 24 h (exposure time).\nCell viability was assessed in both cases using the Alamar blue assay, as described earlier. Furthermore, immunofluorescence microscopy was utilised to examine cell-material interactions and their spread using a fluorescent dye. Specifically, HDF cells were labelled with CellTracker^TM Red CMTPX (Invitrogen, Milan, Italy) in a 75 cm^2 cell culture flask, trypsinised, and then seeded onto IL-loaded polymer substrates. The cells were then incubated for 24 h at 37 °C. […]\nTo assess the possibility of developing substrates for use in various biomedical applications, from drug delivery to tissue engineering or as an antimicrobial coating, the biocompatibility of ionic-liquid-loaded polymeric substrates (ILs) was also evaluated using indirect and direct cytotoxicity assays. […]"}, "[2]": {"test": "Thermogravimetric analysis (TGA), thermal stability", "type": "physicochemical", "details": "neat ILs; single-step degradation; 10 °C/min, nitrogen", "experimental": "Thermal stability and kinetic parameters of the synthesised ILs were investigated using the TA instruments Q500 thermogravimetric analyser (Milan, Italy). A certain amount of sample (4–5 mg) was placed in a platinum pan and heated at 10 °C min^−1 from 40 to 600 °C under a flow of nitrogen (60 mL/min).\nThermogravimetric analyses were performed to evaluate the thermal stability of ILs and PVC/IL blends. Before testing, the samples were subjected to drying cycles in a vacuum stove for 24 h at 50–60 °C, according to the thermal features of ILs, mainly considering their melting points. The ILs C9mimBF4, C10mimBF4, C9mimDMSIP, and C10mimDMSIP, which are liquid at RT, were left to dry at 30 °C for 4–5 h. […] Considering this, the 40–600 °C degradation temperature range was adopted for the subsequent TGA analyses. […] Furthermore, platinum pans and nitrogen as purge gas were used, and the temperature at which 5% weight loss occurred was defined as Tonset, aiming to avoid the decomposition differences due to pan and gas types, as well as the uncertainty from the manual determination of the Tonset tangent point, respectively. Many features can influence the thermal stability of ILs, mainly the coordinating nature of the anion. Indeed, the highly coordinating halide anions (Cl, Br) display a thermal stability lower than that of poor coordinating anions (PF6). The type of cation core influences the thermal stability of ILs, with a decreasing temperature resistance in the following order: pyrrolidinium, imidazolium, pyridinium, and non-cyclic tetra-alkyl ammonium. The increasing alkyl chain length of the imidazolium cation and branching of the alkyl substituents induce a reduction in thermal stability. Furthermore, a decrease in thermal stability is determined by the presence of alkoxylated side chains in methylimidazolium, piperidinium, and pyrrolidinium cations.\nAs the industrial production of end products usually involves processing methodologies during which undesirable degradation processes could affect materials’ performance, the thermal stability of neat PVC and PVC/IL film blends was analysed. As detailed for TGA analyses of pure ILs, the stability of the PVC/IL blends was determined at heating runs of 10 °C/min from 40 to 600 °C under a nitrogen atmosphere using a platinum pan. These things considered, the temperature at 5% weight loss was considered as Tonset."}, "[3]": {"test_system": "MCF7 cancer cells", "test": "Direct cytotoxicity test of IL powders, Alamar blue assay", "type": "cell-based, human", "details": "Homo sapiens, 24 h of incubation", "experimental": "(§1) Cytotoxicity studies on IL powders were carried out using human dermal fibroblast (HDF) cells (Sigma-Aldrich) and a human breast cancer cell line (MCF7). In addition, ILs loaded in PVC polymer substrates were tested for their cytocompatibility and adhesion properties on the HDF. HDF cells were cultured in 75 cm^2 cell culture flask in Dulbecco’s Modified Eagle’s Medium (DMEM) supplemented with 20% Foetal Bovine Serum (FBS), 1% non-essential amino acid (NEAA), antibiotic solution (streptomycin 100 µg/mL and penicillin 100 U/mL, Sigma Aldrich) and 2 mM L-glutamine. MCF7 cells were grown in DMEM with 10% FBS and the same antibiotics as mentioned above. The cells were maintained in a culture at 37 °C, with 5% CO2 and 95% humidity to achieve a confluent layer. Control cells were cultured in a complete medium without any compounds in tissue culture plates. Before biological testing, the samples were sterilised using a UV light for 2 h.\n(§2) A direct cytotoxicity test was used to assess the in vitro cytotoxicity of IL powders. IL powders with different alkyl chains were dissolved in DMEM media to obtain solutions at various concentrations (0.5–1–5 and 10 µg/mL) to determine the best formulation.\n(§3) After 24 h of incubation of IL solutions (200 µL) with seeded cells under specific environmental conditions (T = 37 °C, HR = 95%, CO2 = 5%), cell viability was tested using the Alamar blue assay (AbD Serotec, Milan, Italy) following the manufacturer’s instructions.\n(§4) In summary, each well received a 200 µL aliquot of Alamar Blue^TM diluted 1:10 in phenol red-free medium and was incubated for 4 h at 37 °C, 5% CO2. Following this, 100 µL of the solution was transferred to a 96-well plate for colorimetric analysis. Wells with no cells were included to account for any background interference from the redox indicator. Optical density was immediately measured using a spectrophotometer (Victor X3, Perkin Elmer, Waltham, MA, USA) at 560 and 595 nm wavelengths. The results were presented as a percentage of cell viability compared to that of the control (cells grown on tissue culture plates).\n(§5) Here, the antitumor activity and cytotoxicity of the synthetised imidazolium-based ionic liquids have been determined for breast cancer cells (MCF-7) and healthy human fibroblast (HDF) cells. […] Table 5 reports the IC50 values in µg/mL and µM to make their comparison with the literature data easy."}, "[4]": {"test_system": "HDF cells", "test": "Direct cytotoxicity test of IL powders, Alamar blue assay", "type": "cell-based, human", "details": "Homo sapiens, 24 h of incubation", "experimental": "as §1, §2, §3, §4, §5"}}, "data": [{"smiles": "CCCCCCCCCCn1cc[n+](C)c1.F[B-](F)(F)F", "note": "[C10mimBF4]", "values": [{"measurement": "HDF cell viability, indirect cytotoxic test", "setting": "[1]", "value": "good cell survival"}, {"measurement": "Td, maximum degradation temperature", "setting": "[2]", "value": 417.2, "unit": "°C"}, {"measurement": "IC50", "setting": "[3]; n = 3", "value": 7.39, "unit": "µg/mL"}, {"measurement": "IC50", "setting": "[3]; n = 3, mean ± SD", "value": 23.8, "unit": "µM"}, {"measurement": "IC50", "setting": "[4]; n = 3", "value": 13.5, "unit": "µM"}, {"measurement": "IC50", "setting": "[4]; n = 3, mean ± SD", "value": "4.18 ± 0.03", "unit": "µg/mL"}]}]}
